Assay results published in patent publication US20250179057A1, “MEK IMMUNE ONCOLOGY INHIBITORS AND THERAPEUTIC USES THEREOF” (Immuneering Corporation, priority 2022, published 2025).
Where a name gives a salt, the structure may show the parent alone.

Legend:
[1] = tested on: phospho-ERK in A549 (KRAS G12S) cells; assay: Cell-based pERK (pERK:tERK) in A549 cells; parameters: A549-pERK 10 uM, 2 h: unit not given here; settings: for A549-pERK (10 nM, 2 h): phospho- to total protein ratio normalized to DMSO control (Table 9); for IC50: A549, 12-point dose; for pERK:tERK (10 nM 2 h A549): Phospho-ERK Screen in A549 (KRAS G12S), head 10 nM 2 h, title 10 μM for 2 hours; for activity at 0.01 µM: A549, 2 h, read-out: A549-pERK (10 nM, 2 h)
Summary of the method: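 A549 cells in 6-well plates were treated with compound at a predetermined concentration for 2 hours at 37 °C. Lysates were then normalised by Bradford protein assay to 1 mg/mL for pERK. Phospho-ERK and total ERK were detected by Western blot with IRDye secondary antibodies and quantified by LI-COR Odyssey imaging.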

human hepatocytes = assay: Hepatocyte stability, human; format: in vitro ADME; settings: 2 μM, 0.5 million cells/ml; for % Remaining At T120 / T1/2: 120 min
Method: In this study, human, cynomolgus monkey, beagle dog, wistar hannover rat, and balb/c mouse hepatocyle stability was determined.

[2] = Plasma stability, human plasma (K2EDTA); format: in vitro ADME; settings: 2 μM; for T1/2 / % Remaining at T120 / half-life at 2 μM: human plasma, anti-coagulant K2-EDTA; for T1/2 / half-life at 2 μM: 10 to 120 min; for % Remaining at T120: 120 min; for half-life at 2 μM: read-out: T1/2
Method: Individual stock solutions of propantheline and lovastatin were prepared at 10 mM in DMSO and were further diluted to 2 mM with DMSO.
Frozen matrices (Balb/c mouse, Wistar Han rat, Beagle dog, and human plasma containing K2EDTA as anti-coagulant) were thawed and centrifuged at 3100 rpm for 10 minutes at 4° C. to remove particulates. The lipid layer was then removed, and the supernatant was transferred to a new tube without disturbing the pellet. After the matrices were incubated at 37° C. for at least 10 minutes, the pH of each matrix was adjusted to pH 7.4, using 10% phosphoric acid or 1N sodium hydroxide as necessary. Test and control article stock solutions were spiked (2 μL) into matrix (1.998 mL) and mixed to final assay concentration of […]. Duplicate 30-μL aliquots of spiked plasma were transferred to matrix tubes in 96-well plate immediately after spiking for timepoints of 0, 30, 60, 120, 240, and 360 minutes. These tubes were then incubated at 37° C. with shaking and at each timepoint, the corresponding tubes containing samples were quenched with 180 μL of cold acetonitrile containing the internal standards. The quenched samples were vortex-mixed briefly and stored refrigerated. After the final time point (360 minutes), the plates with all quenched samples were vortex-mixed for 10 minutes and then centrifuged at 3100 rpm for 10 minutes at 4° C. to sediment the precipitated protein. The supernatant (50 μL) was transferred to a clean 96-well plate and diluted with 100 μL of water. The plates were stored refrigerated until analysis.
Data Analysis: Peak area ratios for IS-normalized test article and control article counts were used to calculate the percent remaining relative to the time zero (T0) value. As appropriate, results were plotted and further analyzed to calculate half-life (T1/2) values.
Mean peak area ratios were used to calculate the % remaining relative to the T0 value:
In this study, human, cynomolgus monkey, beagle dog, wistar hannover rat, and balb/c plasma stability was determined. Table 28 describes the results of the human plasma stability at 2 μM concentration and anti-coagulant K2-EDTA from 10 to 120 min. Table 29 describes the results of the cynomolgus monkey plasma stability at 2 μM concentration and anti-coagulant K2-EDTA. Table 30 describes the results of the beagle dog plasma stability at 2 μM concentration and anti-coagulant K2-EDTA. Table 31 describes the results of the wistar hannover rat plasma stability at 2 μM concentration and anti-coagulant K2-EDTA. Table 32 describes the results of the balb/c plasma stability at 2 μM concentration and anti-coagulant K2-EDTA.

CYP2C9 = CYP2C9 (Homo sapiens, UniProt P11712); assay: CYP450 panel inhibition in human liver microsomes, 2C9 (diclofenac); settings: for CYP-2C9 (Diclofenac) mean percentage CYP inhibition: human liver microsomes, substrate diclofenac; for inhibition at 30 min, 10 µM: microsomes
CYP2C9, sequence (P11712 whole entry): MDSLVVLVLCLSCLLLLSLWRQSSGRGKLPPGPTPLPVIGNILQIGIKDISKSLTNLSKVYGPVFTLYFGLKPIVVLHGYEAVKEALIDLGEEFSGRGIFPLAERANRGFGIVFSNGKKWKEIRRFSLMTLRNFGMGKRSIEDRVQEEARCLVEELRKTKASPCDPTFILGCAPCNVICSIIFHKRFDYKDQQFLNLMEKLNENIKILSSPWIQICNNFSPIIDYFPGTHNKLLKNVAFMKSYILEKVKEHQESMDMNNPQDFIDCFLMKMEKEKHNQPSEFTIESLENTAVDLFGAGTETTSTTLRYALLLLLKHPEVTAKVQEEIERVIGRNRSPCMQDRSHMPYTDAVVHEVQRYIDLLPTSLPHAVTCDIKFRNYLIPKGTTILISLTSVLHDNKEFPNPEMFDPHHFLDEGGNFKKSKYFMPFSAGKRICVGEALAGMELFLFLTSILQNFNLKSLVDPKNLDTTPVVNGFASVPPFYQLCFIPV
Description: The quenched samples were stored refrigerated.

Row | Structure (SMILES) | A549-pERK (10 nM, 2 h) ([1]; 2 h) | pERK:tERK (10 nM 2 h A549) [1] | CLint (L/hr/kg) (human hepatocytes) | CLint (mL/min/kg) (human hepatocytes) | % Remaining At T120 (human hepatocytes) | T1/2 (human hepatocytes) | T1/2 [2] | % Remaining at T120 [2] | CYP-2C9 (Diclofenac) mean percentage CYP inhibition (CYP2C9; 10 μM) | half-life at 2 μM ([2]; pH 7.4) | inhibition at 30 min, 10 µM (CYP2C9; human, pH 7.4) | further results
1 | CNS(=O)(=O)Nc1cccc(Cc2c(CN(C)C)c3ccc(OC(=O)N(C)C)cc3oc2=O)c1F [Compound 9] | 63.0 | 65 (n = 27) | 1.93 L/h/kg | 32.2 mL/min/kg | 48.9% | 116 min | >120 min | 99.8% | 13.4% | – | – | A549 pERK:tERK ratio [10 nM; 2 hr] [1]: 0.62; A549-pERK 10 uM, 2 h ([1]; 10 uM, 2 h, phospho- to total protein ratio normalized to DMSO control): 1.205 (mean, n = 2); IC50 [1]: 19.8 nM
2 | CNS(=O)(=O)Nc1cccc(Cc2c(CN(C)C)c3cc(F)c(OC(=O)N(C)C)cc3oc2=O)c1F [Compound 25] | 66.2 | 66 (n = 2) | 0.00218 L/h/kg | 0.0363 mL/min/kg | 99.9% | – | >120 min | 112.1% | 28.0% | – | – | –
3 | CCS(=O)(=O)Nc1cccc(Cc2c(CN(C)C)c3ccc(OC(=O)N(C)C)cc3oc2=O)c1F [Compound 120] | 77.2 | – | 2.02 L/h/kg | 33.6 mL/min/kg | 47.4% | 111 min | >120 min | 123.8% | 11.1% | – | – | –
4 | CNS(=O)(=O)Nc1nccc(Cc2c(CN(C)C)c3ccc(OC(=O)N(C)C)cc3oc2=O)c1F [Compound 124] | 94.6 | – | 0.953 L/h/kg | 15.9 mL/min/kg | 70.3% | 236 min | 631 min | 85.0% | 65.5% | – | – | –
5 | CNS(=O)(=O)Nc1cccc(Cc2c(CN3CCNCC3)c3cc(F)c(OC(=O)N(C)C)cc3oc2=O)c1F [Compound 134] | 33.1 | – | 0.148 L/h/kg | 2.46 mL/min/kg | 94.7% | 1521 min | >120 min | 107.8% | 20.5% | – | – | –
6 | CCCS(=O)(=O)Nc1cccc(Cc2c(CN3CCNCC3)c3cc(Cl)c(OC(=O)N(C)C)cc3oc2=O)c1F [Compound 167] | – | 27 (n = 2) | 1.67 L/h/kg | 27.9 mL/min/kg | 53.8% | 134 min | 948 min | 84.6% | 71.8% | – | – | –
7 | CCN(C)Cc1c(Cc2cccc(NS(=O)(=O)NC)c2F)c(=O)oc2cc(OC(=O)N(C)C)c(F)cc12 [Compound 238] | – | – | – | – | 27.3% | – | – | 95.7% | – | 4110 min | – | activity at 0.01 µM ([1]; Homo sapiens): 68.4%
8 | CCN(C)Cc1c(Cc2cccc(NS(=O)(=O)NC)c2Cl)c(=O)oc2cc(OC(=O)N(C)C)ccc12 [Compound 245, 3-(2-chloro-3-((N-methylsulfamoyl)amino)benzyl)-4-((ethyl(methyl)amino)methyl)-2-oxo-2H-chromen-7-yl dimethylcarbamate] | – | 69 | – | – | 13.9% | – | – | 106.8% | – | > 120 min | 25.8% | activity at 0.01 µM ([1]; Homo sapiens): 68.8%
9 | CNS(=O)(=O)Nc1cccc(Cc2c(CN3CCNCC3)c3ccc(OC(=O)N(C)C)cc3oc2=O)c1Cl [Compound 246, 3-(2-chloro-3-((N-methylsulfamoyl)amino)benzyl)-2-oxo-4-(piperazin-1-ylmethyl)-2H-chromen-7-yl dimethylcarbamate hydrochloride] | – | 19 | – | – | 95.3% | – | – | 105.7% | – | > 120 min | 19.4% | activity at 0.01 µM ([1]; Homo sapiens): 19%
10 | CNS(=O)(=O)Nc1cccc(Cc2c(CN3CCNCC3)c3cc(Cl)c(OC(=O)N(C)C)cc3oc2=O)c1Cl [Compound 256, 6-chloro-3-(2-chloro-3-((N-methylsulfamoyl)amino)benzyl)-2-oxo-4-(piperazin-1-ylmethyl)-2H-chromen-7-yl dimethylcarbamate hydrochloride] | – | 14 | – | – | 91.4% | – | – | 84.8% | – | 841 min | 36.5% | –
11 | CCS(=O)(=O)Nc1cccc(Cc2c(CN3CCNCC3)c3cc(Cl)c(OC(=O)N(C)C)cc3oc2=O)c1Cl [Compound 257, 6-chloro-3-(2-chloro-3-(ethylsulfonamido)benzyl)-2-oxo-4-(piperazin-1-ylmethyl)-2H-chromen-7-yl dimethylcarbamate hydrochloride] | – | 17 | – | – | 89.1% | – | – | 96.3% | – | 10400 min | 53.7% | –
12 | CNS(=O)(=O)Nc1cccc(Cc2c(CN(C)C)c3ccc(OC(=O)N(C)C)cc3oc2=O)c1Cl [Compound 274, 3-(2-chloro-3-((N-methylsulfamoyl)amino)benzyl)-4-((dimethylamino)methyl)-2-oxo-2H-chromen-7-yl dimethylcarbamate] | – | – | – | – | 47.5% | – | – | 121.2% | – | > 120 min | 17.1% | –
13 | Cn1cnc2c(F)c(Nc3ccc(Br)cc3Cl)c(C(=O)NOCCO)cc21 [Reference-1, Selumetinib] | – | – | – | – | – | – | – | – | – | – | – | A549 pERK:tERK ratio [10 nM; 2 hr] [1]: 0.56; IC50 ([1]; Homo sapiens): 7.2 nM; Human (% Reamining @2 hour) ([2]; human, 2 h, pH 7.4): 98.1%; CYP2C9 inhibition (CYP2C9; human, 30 min, 10 μM, pH 7.4): 14.1%
14 | CNS(=O)(=O)Nc1nccc(Cc2c(C)c3ccc(Oc4ncccn4)cc3oc2=O)c1F [Reference-2, reference compound] | – | – | – | – | – | – | – | – | – | – | – | IC50 ([1]; Homo sapiens): 7.2 nM; Human (% Reamining @2 hour) ([2]; plasma, 2 hour): 91.1%
